Measured values published in the NIST ThermoML archive (doi:10.1007/s10765-010-0768-y).

Assay: xn = mol fraction of the nth substance listed
Conditions: 101 kPa, Liquid, Pycnometric method

C=CC(=O)OCCCC [butyl 2-propenoate] + Cc1ccc(C)cc1
mass density [kg/m3]
Conditions	288.15 K	293.15 K	298.15 K	303.15 K	308.15 K	313.15 K	318.15 K
x1 = 0.0712	868.91	864.5	860.09	855.68	851.28	846.88	842.48
x1 = 0.1429	872.25	867.79	863.33	858.87	854.42	849.97	845.52
x1 = 0.213	875.39	870.89	866.39	861.89	857.39	852.9	848.41
x1 = 0.2833	878.45	873.91	869.37	864.84	860.31	855.78	851.25
x1 = 0.3623	881.76	877.19	872.62	868.05	863.48	858.91	854.34
x1 = 0.4313	884.56	879.95	875.34	870.74	866.14	861.54	856.94
x1 = 0.5088	887.58	882.94	878.3	873.66	869.03	864.4	859.77
x1 = 0.5829	890.35	885.68	881.01	876.34	871.68	867.02	862.36
x1 = 0.6542	892.91	888.21	883.51	878.82	874.13	869.44	864.75
x1 = 0.7216	895.22	890.5	885.78	881.06	876.35	871.64	866.93
x1 = 0.7922	897.54	892.8	888.06	883.32	878.58	873.85	869.12
x1 = 0.8586	899.61	894.85	890.09	885.33	880.58	875.83	871.08
x1 = 0.9294	901.67	896.91	892.15	887.39	882.63	877.88	873.13
x1 = 1	903.6	898.85	894.1	889.35	884.6	879.85	875.1

C=CC(=O)OCCCC [butyl 2-propenoate] + Cc1cccc(C)c1
mass density [kg/m3]
Conditions	288.15 K	293.15 K	298.15 K	303.15 K	308.15 K	313.15 K	318.15 K
x1 = 0.0732	871.73	867.39	863.05	858.71	854.37	850.04	845.71
x1 = 0.1432	874.65	870.26	865.87	861.48	857.1	852.72	848.34
x1 = 0.2103	877.37	872.94	868.51	864.08	859.66	855.24	850.82
x1 = 0.2841	880.28	875.81	871.34	866.87	862.41	857.95	853.49
x1 = 0.3605	883.19	878.68	874.17	869.66	865.16	860.66	856.16
x1 = 0.4318	885.82	881.28	876.74	872.2	867.66	863.12	858.58
x1 = 0.5006	888.28	883.7	879.12	874.55	869.98	865.41	860.84
x1 = 0.5778	890.95	886.34	881.73	877.12	872.51	867.9	863.3
x1 = 0.6534	893.46	888.81	884.17	879.53	874.89	870.25	865.61
x1 = 0.7204	895.6	890.93	886.26	881.59	876.92	872.25	867.58
x1 = 0.7935	897.84	893.13	888.43	883.73	879.03	874.33	869.63
x1 = 0.8579	899.73	895	890.27	885.54	880.82	876.1	871.38
x1 = 0.9306	901.78	897.03	892.28	887.53	882.79	878.05	873.31
x1 = 1	903.6	898.85	894.1	889.35	884.6	879.85	875.1
